Literature values in patent US20070148249A1, “Method of preparation of oral solid dosage form with instant release of acting” (priority 2003, published 2007).
Like-named read-outs stand apart in the source and are kept apart here.

**Q.** Which Solubility (in chloroform and lower alcohols) does the source give for `CC(C)(C)NC(=O)[C@H]1CC[C@H]2[C@@H]3CC[C@H]4NC(=O)C=C[C@]4(C)[C@H]3CC[C@]12C` [Finasteride, (5α,17β)-N-(1,1-dimethylethyl)-3-oxo-4-azaandrost-1-en-17-carboxamide] here?
**A.** well soluble

**Q.** And the Solubility (in water)?
**A.** almost insoluble
